# According to patent US20140179521A1, “COMPOSITIONS INCORPORATING HYTd” (Agrinos AS, priority 2012, published 2014):
# Experiments:
# Format in all cases: in vivo
# small grain cereals = assay: Small grain cereal replicated field experiments, grain yield; conditions: applied topically at growth stage 37
# Mildew = assay: Small grain cereal replicated field experiments, mildew level / disease control; conditions: small grain cereals
# Streptomyces scabies = assay: Potato field experiment, expression of Streptomyces scabies; conditions: potato Maris Piper, field plots, treatment applied at planting
# Rhizoctonia solani = assay: Potato field experiment, expression of Rhizoctonia solani
# [1] = test system: potato variety Maris Piper; assay: Potato field experiment, tuber yield
# [2] = potato Maris Piper, field plots, treatment applied at planting
# [3] = potatoes, in-furrow application, field observations
compound,measurement,setting,value
CO/C=C(/C(=O)OC)c1ccccc1Oc1cc(Oc2ccccc2C#N)ncn1 [azoxystrobin],Yield t/ha,small grain cereals,10.44 t/ha
same,disease control / period of disease suppression (in words),Mildew,significant levels of disease control
same,Mildew level 7 days after treatment,Mildew; 7 days after treatment,4%
same,Mildew level 21 days after treatment,Mildew; 21 days after treatment,11%
same,S. scabies,Streptomyces scabies,46%
same,R. solani,Rhizoctonia solani; [2],2%
same,control of Rhizoctonia (in words),Rhizoctonia solani; [3],high level disease control
same,Yield t/ha,[1]; [2],62.17 t/ha
same,effect on yield (in words),[1]; [3],little direct yield increase
